Reference: US10869878B2, “Vaginal composition and use thereof” (SINGAPORE ZE&Z INTERNATIONAL PTE. LTD, priority 2014, dated 2020)

System: BV-associated bacteria
Experiment: Acid production by BV-associated bacteria in semi-solid agars containing a carbohydrate, anaerobic incubation (Experimental Example 2)
Type: cell-based
Settings: 24 hrs anaerobic, 37° C., 1.5% (w/v) carbohydrate, initial pH 5.4
Excerpt: (1) Grouping in experiment: • (1) Glucose group: containing 1.5% (w/v) glucose, MRS basal medium without carbohydrate, 5% (w/v) calf serum, and 0.45% (w/v) agar, pH5.4; • (2) Fructose group: containing 1.5% (w/v) fructose, MRS basal medium without carbohydrate, 5% (w/v) calf serum, and 0.45% (w/v) agar, pH5.4; • (3) Mannose group: containing 1.5% (w/v) mannose, MRS basal medium without carbohydrate, 5% (w/v) calf serum, and 0.45% (w/v) agar, pH5.4; • (4) Sucrose group: containing 1.5% (w/v) sucrose, MRS basal medium without carbohydrate, 5% (w/v) calf serum, and 0.45% (w/v) agar, pH5.4; • (5) Maltose group: containing 1.5% (w/v) maltose, MRS basal medium without carbohydrate, 5% (w/v) calf serum, and 0.45% (w/v) agar, pH5.4; • (6) Isomaltose group: containing 1.5% (w/v) isomaltose, MRS basal medium without carbohydrate, 5% (w/v) calf serum, and 0.45% (w/v) agar, pH5.4; and • (7) Isomaltulose group: containing 1.5% (w/v) isomaltulose, MRS basal medium without carbohydrate, 5% (w/v) calf serum, and 0.45% (w/v) agar, pH5.4.
The semi-solid agar of each group was formulated essentially following the method described in Composition Example 1, then sterilized, added with calf serum, and packed in test tubes in a specification of 5 g/tube, for late use.
(2) Secretion specimens from BV patients: vaginal secretions from 5 BV patients; and the criteria of inclusion are: • (1) conforming to the Amsel clinical criteria of BV diagnosis, wherein the pH value of the vaginal secretions was >4.6; • (2) after smearing, Gram staining and microscopical examination of vaginal secretions, Nugent score ≥7; and • (3) no other vaginosis and no antimicrobial agent is used within two weeks.
(3) After sampling, the secretion specimens from BV patients meeting the criteria of inclusion were immediately inoculated to the above 7 aseptic semi-solid agars containing a carbohydrate at the bedside and anaerobically incubated at 37° C. for 24 hrs. The pH values of the agar matrices are detected with a precise pH test paper.

Row | SMILES | pH of the semi-solid agar (Specimen 1) | pH of the semi-solid agar (Specimen 2) | pH of the semi-solid agar (Specimen 3) | pH of the semi-solid agar (Specimen 4) | pH of the semi-solid agar (Specimen 5)
1 | OC[C@H]1O[C@H](OC[C@H]2OC(O)[C@H](O)[C@@H](O)[C@@H]2O)[C@H](O)[C@@H](O)[C@@H]1O (stereo partly drawn) [Isomaltose, isomaltose] | 3.8-4.1 | 4.1 | 3.8 | 3.8 | 3.8
2 | OC[C@H]1O[C@H](OC[C@H]2OC(O)(CO)[C@@H](O)[C@@H]2O)[C@H](O)[C@@H](O)[C@@H]1O (stereo partly drawn) [Isomaltulose, isomaltulose] | 3.8 | 3.8 | 3.8 | 3.8 | 3.8
3 | OC[C@H]1O[C@@](CO)(O[C@H]2O[C@H](CO)[C@@H](O)[C@H](O)[C@H]2O)[C@@H](O)[C@@H]1O [Sucrose, sucrose] | 4.1-4.4 | 3.8-4.1 | 3.8 | 4.1 | 3.8
